Reference: patent US20100179128A1, “XANTHINE DERIVATIVES AS SELECTIVE HM74A AGONISTS” (priority 2005, published 2010)

Target: T1, Human HM74A (Homo sapiens, UniProt Q8TDS4)
T1 construct: expressed in transfected cells; P2 membrane fractions
Experiment: [35S]-GTPγS binding assay on HM74A membranes (10 μl and 50 μl formats)
Assay type: biochemical
Conditions: 10 μl and/or 50 μl assay, in which they were tested; +/−0.3 log unit; read-out: pEC50 in the [35S]-GTPγS binding assays (converted)
Protocol: For transient transfections, HEK293T cells (HEK293 cells stably expressing the SV40 large T-antigen) were maintained in DMEM containing 10% foetal calf serum and 2 mM glutamine. Cells were seeded in 90 mm culture dishes and grown to 60-80% confluence (18-24 h) prior to transfection. Human HM74A (GenBank™ accession number AY148884) was subcloned in to a mammalian expression vector (pcDNA3; Invitrogen) and transfected using Lipofectamine reagent. For transfection, 9 μg of DNA was mixed with 30 μl Lipofectamine in 0.6 ml of Opti-MEM (Life Technologies Inc.) and was incubated at room temperature for 30 min prior to the addition of 1.6 ml of Opti-MEM. Cells were exposed to the Lipofectamine/DNA mixture for 5 h and 6 ml of 20% (v/v) foetal calf serum in DMEM was then added. Cells were harvested 48 h after transfection. Pertussis toxin treatment was carried out by supplementation into media at 50 ngml^−1 for 16 h. All transient transfection studies involved co-transfection of receptor together with the Gi/o G protein, Go1α.
For generation of stable cell lines the above method was used to transfect CHO-K1 cells seeded in six well dishes grown to 30% confluence. These cells were maintained in DMEM F-12 HAM media containing 10% foetal calf serum and 2 mM glutamine. 48 h post-transfection the media was supplemented with 400 μg/ml Geneticin (G418, Gibco) for selection of antibiotic resistant cells. Clonal CHO-K1 cell lines stably expressing HM74A were confirmed by [^35S]-GTPγS binding measurements, following the addition of nicotinic acid.
P2 membrane preparation—Plasma membrane-containing P2 particulate fractions were prepared from cell pastes frozen at −80° C. after harvest. All procedures were carried out at 4° C. Cell pellets were resuspended in 1 ml of 10 mM Tris-HCl and 0.1 mM EDTA, pH 7.5 (buffer A) and by homogenisation for 20 s with a Ultra Turrax followed by passage (5 times) through a 25-gauge needle. Cell lysates were centrifuged at 1,000 g for 10 min in a microcentrifuge to pellet the nuclei and unbroken cells and P2 particulate fractions were recovered by microcentrifugation at 16,000 g for 30 min. P2 particulate fractions were resuspended in buffer A and stored at −80° C. until required.
[^35S]-GTPγS binding—assays were performed at room temperature in 384-well format based on methods described previously, (Wieland, T. and Jakobs, K. H. (1994) Methods Enzymol. 237, 3-13). Briefly, the dilution of standard or test compounds were prepared and added to a 384-well plate in a volume of 10 μl. Membranes (HM74A or HM74) were diluted in assay buffer (20 mM HEPES, 100 mM NaCl, 10 mM MgCl2, pH7.4) supplemented with saponin (60 μg/ml), Leadseeker WGA beads (Amersham; 250 μg/well) and 10 μM GDP, so that the 20 μl volume added to each well contains 5 μg of membranes. [^35S]-GTPγS (1170 Ci/mmol, Amersham) was diluted (1:1500) in assay buffer and 20 μl added to each well. Following the addition of the radioligand, the plates were sealed, pulse spun and incubated for 4 hours at room temperature. At the end of the incubation period the plates were read on a Leadseeker machine (VIEWLUX PLUS; Perkin-Elmer) to determine the levels of specific binding.
These assays were refined by reducing the final assay volume to 10 μl. For this 10 μl assay a revised protocol was used. This involved the use of only 100 nl of standard or test compound per well of a 384-well plate and 1.5 μg membrane and 100 μg Leadseeker WGA beads. For the low volume protocol, membrane, beads and [^35S]-GTPγS were mixed together and then 10 μl of this mix were dispensed to each well. Incubation and plate read were identical for the 10 μl and 50 μl assays.
All exemplified compounds were tested in one or both of the [^35S]-GTPγS binding assays described above (i.e. the 10 μl and 50 μl assays).
Data was analysed by curve fitting as carried out using a Four Parameter Logistical equation using the XC50 software package (max 2 points deleted from any one curve). […]

T1 sequence (Q8TDS4 whole entry): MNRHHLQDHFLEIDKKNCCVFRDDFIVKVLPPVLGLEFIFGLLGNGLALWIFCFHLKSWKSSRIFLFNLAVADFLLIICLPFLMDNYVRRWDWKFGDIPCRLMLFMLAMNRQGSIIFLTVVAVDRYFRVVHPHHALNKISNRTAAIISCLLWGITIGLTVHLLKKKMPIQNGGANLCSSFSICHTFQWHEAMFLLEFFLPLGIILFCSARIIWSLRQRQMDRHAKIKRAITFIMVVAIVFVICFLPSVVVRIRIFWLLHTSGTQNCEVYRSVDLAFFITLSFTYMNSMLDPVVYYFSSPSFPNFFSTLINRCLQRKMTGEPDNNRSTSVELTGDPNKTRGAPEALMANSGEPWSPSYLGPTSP

SMILES	EC50
O=c1c2[nH]c(Cl)nc2n(CCN2CCCCC2)c(=O)n1CCCc1nc(Cc2ccc(F)cc2F)no1 [8-chloro-1-(3-{3-[(2,4-difluorophenyl)methyl]-1,2,4-oxadiazol-5-yl}propyl)-3-[2-(1-piperidinyl)ethyl]-3,7-dihydro-1H-purine-2,6-dione]	> 50.1 µM
O=c1c2[nH]c(Cl)nc2n(CCN2CCCC2)c(=O)n1CCCc1nc(Cc2ccc(F)cc2F)no1 [8-chloro-1-(3-{3-[(2,4-difluorophenyl)methyl]-1,2,4-oxadiazol-5-yl}propyl)-3-[2-(1-pyrrolidinyl)ethyl]-3,7-dihydro-1H-purine-2,6-dione]	> 50.1 µM
CN(C)C(C)(C)Cn1c(=O)n(CCCc2nc(Cc3ccc(F)cc3F)no2)c(=O)c2[nH]c(Cl)nc21 [8-chloro-1-(3-{3-[(2,4-difluorophenyl)methyl]-1,2,4-oxadiazol-5-yl}propyl)-3-[2-(dimethylamino)-2-methylpropyl]-3,7-dihydro-1H-purine-2,6-dione]	> 50.1 µM

Next, values leading:

EC50	SMILES
> 50.1 µM	CN(C)CCn1c(=O)n(CCCc2nc(Cc3ccc(F)cc3F)no2)c(=O)c2[nH]c(Cl)nc21 [8-chloro-1-(3-{3-[(2,4-difluorophenyl)methyl]-1,2,4-oxadiazol-5-yl}propyl)-3-[2-(dimethylamino)ethyl]-3,7-dihydro-1H-purine-2,6-dione]
> 50.1 µM	O=c1c2[nH]c(Cl)nc2n(CCN2CCCCCC2)c(=O)n1CCCc1nc(Cc2ccc(F)cc2F)no1 [8-chloro-1-(3-{3-[(2,4-difluorophenyl)methyl]-1,2,4-oxadiazol-5-yl}propyl)-3-[2-(hexahydro-1H-azepin-1-yl)ethyl]-3,7-dihydro-1H-purine-2,6-dione]
> 50.1 µM	CN1CCN(CCCn2c(=O)n(CCCc3nc(Cc4ccc(F)cc4F)no3)c(=O)c3[nH]c(Cl)nc32)CC1 [8-chloro-1-(3-{3-[(2,4-difluorophenyl)methyl]-1,2,4-oxadiazol-5-yl}propyl)-3-[3-(4-methyl-1-piperazinyl)propyl]-3,7-dihydro-1H-purine-2,6-dione]
> 50.1 µM	CN(C)CCCn1c(=O)n(CCCc2nc(Cc3ccc(F)cc3F)no2)c(=O)c2[nH]c(Cl)nc21 [8-chloro-1-(3-{3-[(2,4-difluorophenyl)methyl]-1,2,4-oxadiazol-5-yl}propyl)-3-[3-(dimethylamino)propyl]-3,7-dihydro-1H-purine-2,6-dione]
